Data on two molecules can be found in US20120108666A1, “Treatment of Cell Proliferative Disorders” (priority 2006, published 2012).

Structures are written as SMILES.

One data set relates to HL-60 cells. Put plainly: XTT viability of HL-60 cells after 3 days, with and without piceatannol. It counts as cell-based, human. Conditions: for viability of HL-60 cells, XTT method: 3 days. The text has this:
Secondly, the effect of compounds of the invention may be compared to the natural inhibitor of Syk, piceatannol.
(Tetrazolium dyes change colour on reduction, which living cells bring about.)

The test system of data set [1] is Syk-containing Jurkat cells. Put plainly: Jurkat cell survival after seven days (FIG. 4). It counts as cell-based. Conditions: 50 μg/ml. The protocol: FIG. 4 illustrates the effect of AV 61S and AV 74S on Jurkat cell survival after a seven day period;
(§1) The jurkat E6.1 line is a Syk-deficient line; in fact, AV 61S after 7 days has no effect on this cell line (i.e., neither apoptosis nor inhibition, see […]). […] The viability study has been performed after 24 and 48 hours of incubation, each time for 3 evaluations; within 1, 3 and 6 hours.

The test system of data set [2] is jurkat E6.1 line (Syk-deficient). Put plainly: E6.1 Jurkat cell survival after seven days (FIG. 3). Conditions: after 7 days. It is filed as cell-based. The protocol: as §1
Another data set concerns E6.1 Jurkat cells. In words: Viability of E6.1 Jurkat cells after 24 and 48 hours (FIGS. 18, 19). It is filed as cell-based. Conditions: 24 and 48 hours of incubation. Here is the method:
FIG. 18 illustrates, in comparison with cyclosporin-treated Jurkat cells, the viability of E6.1 Jurkat cells treated with differing concentrations of AV 61S or AV 74S after 24 hours; and
FIG. 19 illustrates, in comparison with cyclosporin-treated Jurkat cells, the viability of E6.1 Jurkat cells treated with differing concentrations of AV 61S or AV 74S after 48 hours.
as §1

The test system of another data set is PHA-activated PBMCs. In words: Inhibition of PHA-activated PBMCs (lymphocyte proliferation). It counts as cell-based, human. Conditions: varying concentrations. The protocol:
as §1
FIGS. 1 and 2 show the effect of diluent on compounds of the invention.

For the molecule `CC(CO)OCC(C)OCC(C)OCC(C)OCC(C)OCC(C)OCC(C)OC[C@H](Cc1ccccc1)NC(=O)CCc1ccc(O)cc1` (stereo partly drawn) [AV 61S], the “viability of HL-60 cells, XTT method” value was 97 % of control in the data set on HL-60 cells (50 μg/ml with Pic 10 μM); 83 % of control in the data set on HL-60 cells (50 μg/ml with Pic 30 μM); 81 % of control in the data set on HL-60 cells (50 μg/ml, no piceatannol); 59 % of control in the data set on HL-60 cells (100 μg/ml with Pic 10 μM); 23 % of control in the data set on HL-60 cells (100 μg/ml with Pic 30 μM); 36 % of control with HL-60 cells (100 μg/ml, no piceatannol). Further, in data set [1], the “killing of Syk-containing Jurkat cells” value is listed as around 100%. The “effect on Syk-deficient jurkat E6.1 line (apoptosis, inhibition)” value in data set [2] is listed as “no effect”. For the same molecule, the “killing of E6.1 Jurkat cells (viability study)” value in the data set with E6.1 Jurkat cells is “do not kill them”. The “inhibitory effect on PHA-activated PBMCs” value in the data set on PHA-activated PBMCs (DMSO carrier) is “inhibitory effect”; in the data set with PHA-activated PBMCs (PBS carrier), “lesser inhibitory effect”.
For `Oc1cc(O)cc(/C=C/c2ccc(O)c(O)c2)c1` [piceatannol, reference compound], in the data set on HL-60 cells (AV 74S at 100 μg/ml, HL-60), the “blocking of the inhibitory effect of AV 74S by piceatannol” value was “at least partially blocks the inhibitory effect of AV 74S”.
